Test results published in publication PMC3951388, “Structure-Function Relationship of a Plant NCS1 Member – Homology Modeling and Mutagenesis Identified Residues Critical for Substrate Specificity of PLUTO, a Nucleobase Transporter from Arabidopsis” (PLoS ONE, 2014).
“Also recorded” adds a separate entry of the source.

Columns and labels:
PLUTO W223A = target: T1, PLUTO W223A (Arabidopsis thaliana, UniProt Q9LZD0, W223A); assay type: cell-based; details: mutant W223A, 200 μM competitor; for Effect of competitor on guanine transport: 20 μM guanine; for Effect of competitor on uracil transport: 20 μM uracil
T1 construct: Heterologous expression of the full length PLUTO Arabidopsis gene in Escherichia coli uraA insertion mutants; expressed in transfected cells; host or cells: Escherichia coli JD23420 (uraA transposon insertion strain), vector pTAC-MAT-Tag-2
Description: (§1) For the uptake experiments, PLUTO was heterologously expressed in an Escherichia coli transposon insertion strain lacking the endogenous uracil permease uraA (JD23420), obtained from the National Institute of Genetics (Shizuoka, Japan; http://www.shigen.nig.ac.jp/ecoli/strain/top/top.jsp). PLUTO and site directed mutants were cloned in the bacterial expression vector pTAC-MAT-Tag-2 (Sigma Aldrich, Deisenhofen, Germany) as previously described. After the transformation of the cells with the PLUTO expression plasmids, the cells were grown at 37°C and 170 rpm in YT medium containing ampicillin and kanamycin. The expression of PLUTO and site directed mutants was initiated by the addition of isopropyl β-D-thiogalactopyranosid (IPTG) with a final concentration of 0.02% at an OD600 of 0.5. The cells were grown for 2 h after induction, collected by centrifugation for 5 min at 4500 g and 4°C and resuspended with potassium phosphate buffer (50 mM, pH 7.0) to an OD600 of 5. The cells were stored on ice until use.
(§2) Site directed mutagenesis was achieved by using the QuickChange II-E Site directed mutagenesis kit (Stratagene) according to the manufacturer's instructions.
(§3) The uptake of nucleobases with concentrations of 20 μM was performed at 37°C and permanent shaking at 200 rpm. For the analysis of PLUTO mutants the cells were incubated for 5 min (2 min for competition studies) and the uptake was terminated by vacuum filtration through a membrane filter (0.45 μm pore size; Whatman). The cells were washed three times with 1 ml ice cold potassium phosphate buffer (50 mM, pH 7.0) to remove unimported nucleobases and the radioactivity was quantified in a Packard Tricarb 2500 scintillation counter after the addition of 4 mL scintillation cocktail (Roth). For the competition studies, all competitors were added with ten-fold excess (200 μM) to the uptake medium containing 20 μM radiolabelled nucleobases.

PLUTO [1] = target: T2, PLUTO (Arabidopsis thaliana, UniProt Q9LZD0); assay type: cell-based; details: wild type PLUTO, 200 μM competitor; for Effect of competitor on guanine transport: 20 μM radiolabelled guanine; for Effect of competitor on guanine transport / Effect of competitor on uracil transport / Effect of competitor on adenine transport: 2 min; for Effect of competitor on uracil transport: 20 μM [14C]-uracil; for Effect of competitor on adenine transport: 20 μM radiolabelled adenine
T2 construct: Heterologous expression of the full length PLUTO Arabidopsis gene in Escherichia coli uraA insertion mutants; expressed in transfected cells; host or cells: Escherichia coli JD23420 (uraA transposon insertion strain), vector pTAC-MAT-Tag-2
T2 sequence (Q9LZD0 1-599): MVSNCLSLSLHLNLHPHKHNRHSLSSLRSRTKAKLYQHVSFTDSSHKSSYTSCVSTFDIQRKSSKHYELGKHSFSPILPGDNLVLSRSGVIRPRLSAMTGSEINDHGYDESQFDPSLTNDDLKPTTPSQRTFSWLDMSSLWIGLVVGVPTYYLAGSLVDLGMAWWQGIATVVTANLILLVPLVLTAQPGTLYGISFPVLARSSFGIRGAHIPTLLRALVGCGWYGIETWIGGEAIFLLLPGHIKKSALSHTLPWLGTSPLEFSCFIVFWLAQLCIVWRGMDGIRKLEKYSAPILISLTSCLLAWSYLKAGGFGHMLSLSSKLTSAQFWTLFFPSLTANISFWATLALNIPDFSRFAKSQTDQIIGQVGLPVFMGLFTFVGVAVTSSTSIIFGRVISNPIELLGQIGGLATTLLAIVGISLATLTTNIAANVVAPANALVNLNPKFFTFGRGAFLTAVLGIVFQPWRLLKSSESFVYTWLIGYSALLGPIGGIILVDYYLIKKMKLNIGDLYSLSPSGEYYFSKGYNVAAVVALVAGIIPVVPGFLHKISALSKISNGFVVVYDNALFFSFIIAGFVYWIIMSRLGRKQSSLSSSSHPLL
Description: as §1, §3

Nc1ncnc2nc[nH]c12 = assay: cells, lysate or membranes; details: corrected for uptake into uninduced cells, pH 7.0
O=c1cc[nH]c(=O)[nH]1 = assay: cells, lysate or membranes; details: corrected for uptake into uninduced cells, pH 7.0
PLUTO G147Q = PLUTO G147Q (Arabidopsis thaliana, UniProt Q9LZD0, G147Q); details: mutant G147Q; 20 μM; 5 min
Description: as §1, §2, §3

PLUTO E227D = PLUTO E227D (Arabidopsis thaliana, UniProt Q9LZD0, E227D); details: mutant E227D; 20 μM; 5 min
Description: as §1, §2, §3

PLUTO V145A G147Q = PLUTO V145A G147Q (Arabidopsis thaliana, UniProt Q9LZD0, G147Q/V145A); assay: Radiolabelled nucleobase uptake, PLUTO mutant in E. coli lacking uraA; details: 20 μM, 5 min
Description: as §1, §2, §3

PLUTO E227A = PLUTO E227A (Arabidopsis thaliana, UniProt Q9LZD0, E227A); assay: as above; details: 20 μM, 5 min
Description: as §1, §2, §3

PLUTO E227Q = PLUTO E227Q (Arabidopsis thaliana, UniProt Q9LZD0, E227Q); assay: as above; details: 20 μM, 5 min
Description: as §1, §2, §3

PLUTO [2] = target: T2, PLUTO; assay: Radiolabelled nucleobase uptake, wild type PLUTO expressed in E. coli lacking uraA; assay type: cell-based; details: for Net import: wild type PLUTO (control), 5 min, corrected for uninduced cells
Description: The cells were stored on ice until use.

PLUTO [3] = target: T2, PLUTO; details: full length PLUTO in E. coli uraA insertion mutants; ref [4]; cited from earlier work
PLUTO E227Q G147Q = target: T3, PLUTO E227Q G147Q (Arabidopsis thaliana, UniProt Q9LZD0, E227Q/G147Q); assay: Radiolabelled nucleobase uptake, PLUTO mutant in E. coli lacking uraA; assay type: cell-based; details: 20 μM, 5 min
T3 construct: Heterologous expression of the full length PLUTO Arabidopsis gene in Escherichia coli uraA insertion mutants; expressed in transfected cells; host or cells: Escherichia coli JD23420 (uraA transposon insertion strain), vector pTAC-MAT-Tag-2
Description: as §1, §2, §3

PLUTO E227Q T425A = target: T4, PLUTO E227Q T425A (Arabidopsis thaliana, UniProt Q9LZD0, E227Q/T425A); assay: as above; assay type: cell-based; details: 20 μM, 5 min
T4 construct: Heterologous expression of the full length PLUTO Arabidopsis gene in Escherichia coli uraA insertion mutants; expressed in transfected cells; host or cells: Escherichia coli JD23420 (uraA transposon insertion strain), vector pTAC-MAT-Tag-2
Description: as §1, §2, §3

PLUTO E227K = target: T5, PLUTO E227K (Arabidopsis thaliana, UniProt Q9LZD0, E227K); assay: as above; assay type: cell-based; details: 20 μM, 5 min
T5 construct: Heterologous expression of the full length PLUTO Arabidopsis gene in Escherichia coli uraA insertion mutants; expressed in transfected cells; host or cells: Escherichia coli JD23420 (uraA transposon insertion strain), vector pTAC-MAT-Tag-2
Description: as §1, §2, §3

PLUTO F341A = PLUTO F341A (Arabidopsis thaliana, UniProt Q9LZD0, F341A); details: mutant F341A; 20 μM guanine, 200 μM competitor
Description: as §1, §2, §3

PLUTO I226A = PLUTO I226A (Arabidopsis thaliana, UniProt Q9LZD0, I226A); details: mutant I226A; 20 μM guanine, 200 μM competitor
Description: as §1, §2, §3

Nc1nc2nc[nH]c2c(=O)[nH]1 = assay: cells, lysate or membranes; details: pH 7.0; 37.0 °C

T3 sequence (Q9LZD0 whole entry G147Q/E227Q): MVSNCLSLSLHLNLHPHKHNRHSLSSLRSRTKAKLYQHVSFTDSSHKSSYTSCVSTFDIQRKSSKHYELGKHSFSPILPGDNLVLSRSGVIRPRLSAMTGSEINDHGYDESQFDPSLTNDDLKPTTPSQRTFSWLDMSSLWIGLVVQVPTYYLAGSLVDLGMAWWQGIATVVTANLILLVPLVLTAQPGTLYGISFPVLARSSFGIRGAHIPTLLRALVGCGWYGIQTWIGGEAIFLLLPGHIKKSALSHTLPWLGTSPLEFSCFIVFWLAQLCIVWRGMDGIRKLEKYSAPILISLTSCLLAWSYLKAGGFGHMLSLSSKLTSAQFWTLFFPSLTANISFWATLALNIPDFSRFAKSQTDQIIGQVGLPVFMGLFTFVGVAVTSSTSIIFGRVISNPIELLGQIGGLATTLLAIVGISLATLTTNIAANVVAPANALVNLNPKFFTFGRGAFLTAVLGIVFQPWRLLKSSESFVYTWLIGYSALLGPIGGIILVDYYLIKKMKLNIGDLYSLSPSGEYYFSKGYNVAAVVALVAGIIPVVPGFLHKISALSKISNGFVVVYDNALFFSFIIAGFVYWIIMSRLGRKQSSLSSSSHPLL
T5 sequence (Q9LZD0 whole entry E227K): as the sequence (Q9LZD0 whole entry G147Q/E227Q) above, with Q147G, Q227K counted along it
Chain of PLUTO G147Q (Q9LZD0 whole entry G147Q): as the sequence (Q9LZD0 whole entry G147Q/E227Q) above, with Q227E counted along it
T1 sequence (Q9LZD0 whole entry W223A): as the sequence (Q9LZD0 whole entry G147Q/E227Q) above, with Q147G, W223A, Q227E counted along it
Chain of PLUTO E227A (Q9LZD0 whole entry E227A): as the sequence (Q9LZD0 whole entry G147Q/E227Q) above, with Q147G, Q227A counted along it
Chain of PLUTO E227D (Q9LZD0 whole entry E227D): as the sequence (Q9LZD0 whole entry G147Q/E227Q) above, with Q147G, Q227D counted along it
Chain of PLUTO E227Q (Q9LZD0 whole entry E227Q): as the sequence (Q9LZD0 whole entry G147Q/E227Q) above, with Q147G counted along it
Chain of PLUTO V145A G147Q (Q9LZD0 whole entry V145A/G147Q): as the sequence (Q9LZD0 whole entry G147Q/E227Q) above, with V145A, Q227E counted along it
T4 sequence (Q9LZD0 whole entry E227Q/T425A): as the sequence (Q9LZD0 whole entry G147Q/E227Q) above, with Q147G, T425A counted along it
Chain of PLUTO F341A (Q9LZD0 whole entry F341A): as the sequence (Q9LZD0 whole entry G147Q/E227Q) above, with Q147G, Q227E, F341A counted along it
Chain of PLUTO I226A (Q9LZD0 whole entry I226A): as the sequence (Q9LZD0 whole entry G147Q/E227Q) above, with Q147G, I226A, Q227E counted along it

## O=c1[nH]c(=O)c2[nH]c(=O)[nH]c2[nH]1 [uric acid]
PLUTO W223A
  Effect of competitor on guanine transport: no longer able to inhibit
PLUTO [1]
  Effect of competitor on guanine transport: affected

## PLUTO E227Q (Arabidopsis thaliana; E227Q)
Nc1ncnc2nc[nH]c12; other: mutant E227Q
  Km: 0.22 (±0.05) μM

## PLUTO G147Q (Arabidopsis thaliana; G147Q)
Nc1ncnc2nc[nH]c12; other: mutant G147Q
  Km: 0.68 (±0.20) μM
O=c1cc[nH]c(=O)[nH]1; other: mutant G147Q
  Km: 36.07 (±2,32) μM

## Nc1nc2nc[nH]c2c(=O)[nH]1 [guanine]
PLUTO G147Q
  Transport activity (in words): not significantly altered
PLUTO E227D
  Transport: 0.86 nmol mg^−1 protein
PLUTO V145A G147Q
  Residual transport relative to controls: 12%
PLUTO E227A
  Residual transport compared to controls: 4%
PLUTO E227Q
  Residual transport compared to controls: 21%
PLUTO [2]; 20 μM
  Net import: 3.4 nmol mg^−1 protein
PLUTO [3]
  Apparent affinity: 6.3 µM
PLUTO [1]
  Effect of competitor on uracil transport: reduced
  Effect of competitor on adenine transport: not influenced
PLUTO E227Q G147Q
  Residual transport compared to controls: ≤ 16%
PLUTO E227Q T425A
  Residual transport compared to controls: 25%
PLUTO E227K
  Residual transport compared to controls: 11%

## O=c1[nH]cnc2nc[nH]c12 [hypoxanthine]
PLUTO F341A
  Effect of competitor on guanine transport: inhibited
PLUTO I226A
  Effect of competitor on guanine transport: inhibited
PLUTO W223A
  Effect of competitor on guanine transport: no longer able to inhibit
PLUTO [1]
  Effect of competitor on guanine transport: affected; also recorded: marked inhibition

## Cc1c[nH]c(=O)[nH]c1=O [thymine]
PLUTO [2]; wild type PLUTO
  Transport substrate status in direct uptake studies: not identified as transport substrates
PLUTO W223A
  Effect of competitor on uracil transport: inhibited
PLUTO [1]
  Effect of competitor on uracil transport: affected

## O=C(O)c1cc(=O)[nH]c(=O)[nH]1 [orotate]
PLUTO [2]; wild type PLUTO
  Transport substrate status in direct uptake studies: not identified as transport substrates
PLUTO [1]
  Effect of competitor on uracil transport: affected

## PLUTO E227D (Arabidopsis thaliana; E227D)
Nc1ncnc2nc[nH]c12; other: mutant E227D
  Km: 0.97 (±0.21) μM
Nc1nc2nc[nH]c2c(=O)[nH]1
  Km: 3.70 (±0.72) μM
O=c1cc[nH]c(=O)[nH]1; other: mutant E227D
  Km: 5.18 (±1.21) μM

## PLUTO V145A G147Q (Arabidopsis thaliana; G147Q/V145A)
Nc1ncnc2nc[nH]c12; other: mutant V145A G147Q
  Km: 0.81 (±0.17) μM
O=c1cc[nH]c(=O)[nH]1; other: mutant V145A G147Q
  Km: 20.15 (±3.73) μM

## O=C1NC(=O)C(Cc2ccccc2)N1 (stereo not shown) [benzyl hydantoin]
PLUTO [1]
  Transport by PLUTO judged by competitive binding analysis: no indication for a transport

## O=c1cc[nH]c(=O)[nH]1 [uracil]
PLUTO G147Q
  Transport activity (in words): not significantly altered
PLUTO E227D
  Transport: 0.53 nmol mg^−1 protein
PLUTO V145A G147Q
  Increase of transport versus control: 50%
PLUTO E227A
  Transport activity (in words): completely extinguished
PLUTO E227Q
  Transport activity (in words): completely extinguished
PLUTO [2]; 20 μM
  Net import: 3.2 nmol mg^−1 protein
PLUTO [2]; wild type PLUTO, 20 μM, 5 min incubation, not corrected for uninduced cells
  Import into induced E. coli cells: 3.7±0.28 nmol mg^−1 protein
PLUTO [3]
  Apparent affinity: 16.4 µM
PLUTO [1]
  Effect of competitor on adenine transport: not influenced
  Effect of competitor on guanine transport: marked inhibitory effects
PLUTO E227Q G147Q
  Residual transport compared to controls: ≤ 16%
PLUTO E227K
  Transport activity (in words): completely extinguished

## Nc1ncnc2[nH]cnc12 [adenine]
PLUTO G147Q
  Impairment of transport versus control: 45%
PLUTO E227D
  Transport: 2.1 nmol mg^−1 protein
  Transport rate relative to controls: 64%
PLUTO E227A
  Residual transport compared to controls: 26%
PLUTO E227Q
  Increase of transport versus control: 21%
PLUTO [3]
  Apparent affinity: 0.4 µM
PLUTO [1]
  Effect of competitor on uracil transport: remained unaffected
  Effect of competitor on guanine transport: marked inhibitory effects
PLUTO E227Q G147Q
  Residual transport compared to controls: ≤ 16%
PLUTO E227Q T425A
  Residual transport compared to controls: 32%
PLUTO E227K
  Residual transport compared to controls: 7%

## PLUTO E227A (Arabidopsis thaliana; E227A)
Nc1ncnc2nc[nH]c12; other: mutant E227A
  Km: 0.21 (±0.05) μM

## Cc1ncc(C[n+]2csc(CCO)c2C)c(N)n1 [thiamine]
PLUTO W223A
  Effect of competitor on uracil transport: inhibited

## O=C1CCNC(=O)N1 [dihydrouracil]
PLUTO W223A
  Effect of competitor on uracil transport: inhibited
